From patent publication US12698463B2, “Spatially controlled fabrication of multi-spheroid tissues using magnetic bioprinting” (The Board of Trustees of the Leland Stanford Junior …, priority 2022, dated 2026)

Legend:
neural organoids [1] = assay: Cleaved caspase-3 immunofluorescence in adjacent neural organoids of the assembloids; assay type: cell-based, human; conditions: 200 nM panobinostat, neural organoids fused to DIPG organoids
Experimental: Organoids and assembloids were fixed in 4% PFA for 2 hours at 4° C. They were then washed three times with DPBS, for 15 min each, and transferred to a 30% sucrose solution in DPBS for 24-48 hours at 4° C. Once the organoids or assembloids sank in the sucrose solution, they were embedded in a 1:1 mixture of OCT (Fisher Scientific) and 30% sucrose in DPBS. They were then snap frozen on dry ice and stored at −80° C. A cryostat (Leica) was used to cut 50 μm sections for immunostaining.
Cryosections were washed with DPBS to remove excess OCT, then permeabilized with 0.25% Triton X-100 (Thermo Fisher) in DPBS (DPBS-T) for 1 hour and blocked with 5% goat serum (Gibco), 5% bovine serum albumin (BSA, Sigma), and 0.5% Triton X-100 in DPBS for 3 hours, all at RT. Samples were stained with primary antibodies for GFP, (1:200, Invitrogen a11122), cleaved caspase-3 (1:400, Cell Signaling 9661), and histone H3 mutated K27M (1:400, Abcam ab190631). Primary antibodies were diluted in 2.5% goat serum, 2.5% BSA, and 0.5% Triton X-100 in DPBS and incubated with the samples overnight at 4° C., Next, the samples were washed with DPBS-T (3×30 min, RT) and incubated with secondary antibody Alexa Fluor 488 (1:500, Invitrogen, A-11034) and 4′,6-diamidino-2-phenylindole (DAPI, 5 mg/mL stock, 1:2000, Invitrogen) in the same antibody dilution solution overnight at 4° C. […]

[2] = Cellulase-mediated removal of residual CNF on extracted neural organoids; conditions: 0.5 wt % cellulase, over 72 hours
Experimental: To characterize cellulase-mediated CNF degradation after neural organoid release from the support scaffold, neural organoids were first cultured in 0.5 wt % CNF support bath for 1 day and released through diluting the support bath with DPBS. A 0.5 wt % cellulase (Sigma) solution, made up in neural medium, was filtered through a 0.22 μm filter, warmed to 37° C., and added to the organoids with daily medium changes. Organoids were imaged every day with an epifluorescent microscope (Leica Microsystems, THUNDER Imager 3D Cell Culture). The area of residual CNF on the organoid surface was manually measured with ImageJ (NIH, v.2.3.0/1.53q).

neural organoids [3] = assay: Neural organoid viability (calcein AM / ethidium homodimer) after cellulase; assay type: cell-based, human; conditions: 0.5 wt % cellulase treatment over time
Experimental: To characterize viability, organoids were submerged in a solution consisting of DPBS supplemented with 2 μM calcein AM and 4 µM ethidium homodimer for 20 min at 37° C. The samples were washed with DPBS and imaged with an epifluorescent microscope (Leica Microsystems, THUNDER Imager 3D Cell Culture) and confocal microscope (Leica SPE).

[4] = Cellulase-mediated CNF support scaffold degradation (rheology); conditions: range of cellulase concentrations, 0.5 wt % CNF, over time
Experimental: For measurements of cellulase-mediated CNF support scaffold degradation, cellulase (Sigma) was dissolved in DMEM/F12 (Gibco) and added atop 0.5 wt % CNF in a 1:4 ratio by volume to approximate the ratio of media to CNF support within the bioprinting chip. All samples were incubated in a humidified 37° C. incubator for three days. Depending on the downstream measurement, cellulase solutions, as well as non-cellulase containing DMEM/F12 controls, were either changed every day or allowed to incubate over the full three days without a media change.
Viscosity and storage moduli were obtained with an AR-G2 (TA Instruments) stress-controlled rheometer (20 mm 1° cone and plate geometry with a 28 μm gap). To observe the effect of cellulase on the viscosity of CNF over 72 hours, samples were loaded onto the stage at 37° C. for a 5 min time sweep with 1% oscillatory strain and 1 rad/s angular frequency. This was followed by a frequency sweep from 0.1 to 100 Hz at 1% strain. To measure the storage modulus, samples were loaded onto the stage at 2 hours, 4 hours, 6 hours, 24 hours, 48 hours, and 72 hours and subjected to a frequency sweep at 1 rad/s angular frequency.

residual CNF removed from organoid surface [2]	Molecule	cleaved caspase-3 expression (apoptosis) in adjacent neural organoids (neural organoids [1])	cleaved caspase-3 expression (apoptosis) in adjacent neural organoids (neural organoids [1]; listed as Panobinostat)	organoid viability (neural organoids [3])	viscosity and storage modulus of CNF support after cellulase [4]
	Cc1[nH]c2ccccc2c1CCNCc1ccc(/C=C/C(=O)NO)cc1 [panobinostat]	did not exhibit substantially increased cleaved caspase-3 expression	does not induce substantial apoptosis		
over 98%	cellulase			does not affect organoid viability	stepwise decreases in both viscosity and storage modulus
